Results published in PMC12107553 (ACS chemical neuroscience, 2024).
Like-named read-outs stand apart in the source and are kept apart here.

Assays:
[1] = molecular target: T1, HIV reverse transcriptase (RT) (Human immunodeficiency virus type 1 group M subtype B, UniProt P03366); conditions: read-out: HIV RT IC50; marked *, previously reported data ref 19; cited from earlier work
[2] = molecular target: GSK-3β (Homo sapiens, UniProt P49841); assay: GSK-3β enzyme activity assay; type: biochemical; conditions: for GSK-3β inhibition, result in words: titration from 20 μM
[3] = tested on: HIV, WT; conditions: read-out: HIV, WT EC50, cited from earlier work
[4] = molecular target: T1, HIV reverse transcriptase (RT); assay: NNRTI assay; type: biochemical

Sequence of GSK-3β (P49841 whole entry): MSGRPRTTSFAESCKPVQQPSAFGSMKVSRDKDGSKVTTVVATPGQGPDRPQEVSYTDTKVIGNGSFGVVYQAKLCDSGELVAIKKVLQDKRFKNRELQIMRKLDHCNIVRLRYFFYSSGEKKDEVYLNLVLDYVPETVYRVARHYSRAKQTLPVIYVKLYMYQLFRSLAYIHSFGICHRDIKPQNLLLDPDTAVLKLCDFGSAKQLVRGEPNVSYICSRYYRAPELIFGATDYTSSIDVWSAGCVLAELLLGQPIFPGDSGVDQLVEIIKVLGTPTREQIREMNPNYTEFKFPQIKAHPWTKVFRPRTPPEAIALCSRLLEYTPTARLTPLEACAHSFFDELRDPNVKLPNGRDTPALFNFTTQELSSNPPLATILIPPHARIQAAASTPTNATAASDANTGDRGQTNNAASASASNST

## Cn1c(Cn2ccc(C(F)(F)F)c(Oc3cc(Cl)cc(C#N)c3)c2=O)n[nH]c1=O [Doravirine]
[1]
  IC50: 20.7 nM
[2]
  IC50: > 20000 nM
  GSK-3β inhibition, result in words: not inhibitors
[3]; whole cell activity ref 22
  EC50: 13 nM

## O=C1Nc2ccc(Cl)cc2[C@@](C#CC2CC2)(C(F)(F)F)O1 [Efavirenz]
[2]
  IC50: > 20000 nM
  GSK-3β inhibition, result in words: not inhibitors
[3]; whole cell activity ref 21
  EC50: 2 nM

## Cc1cc(C#N)cc(C)c1Oc1nc(Nc2ccc(C#N)cc2)nc(N)c1Br [Etravirine]
[2]
  IC50: 619 nM
[3]; whole cell activity ref 21
  EC50: 1 nM

## Cc1ccnc2c1NC(=O)c1cccnc1N2C1CC1 [Nevirapine]
[2]
  IC50: 1670 nM
[3]; whole cell activity ref 21
  EC50: 110 nM

## Cc1cc(/C=C/C#N)cc(C)c1Nc1ccnc(Nc2ccc(C#N)cc2)n1 [Rilpivirine]
[4]
  IC50: 160 nM
[2]
  IC50: 502 nM
[3]; whole cell activity ref 21
  EC50: 0.67 nM
